Laboratory results reported in publication PMC9154761, “Development of Praziquantel sulphonamide derivatives as antischistosomal drugs” (Journal of Enzyme Inhibition and Medicinal Chemistry, 2022).
Where two headings read alike, the source gives them in different places.

Tests used:
hCA IV = molecular target: T1, hCA IV (Homo sapiens, UniProt P22748); experiment: stopped flow CO2 hydrase assay, hCA IV; type: biochemical; details: mean from three different assays
T1 construct: made in house
Description: (§1) An Applied Photophysics stopped-flow instrument was used to assay the CA catalysed CO2 hydration activity. […] The CO2 concentrations ranged from 1.7 to 17 mM for the determination of the kinetic parameters and inhibition constants. […] For each inhibitor, at least six traces of the initial 5–10% of the reaction were used to determine the initial velocity. The uncatalyzed rates were determined in the same manner and subtracted from the total observed rates. Stock solutions of the inhibitor (0.1 mM) were prepared in distilled–deionized water and dilutions up to 0.01 nM were done thereafter with the assay buffer. Inhibitor and enzyme solutions were preincubated together for 15 min at room temperature prior to the assay, to allow for the formation of the E–I complex. The inhibition constants were obtained by non-linear least-squares methods using PRISM 3 and the Cheng-Prusoff equation as reported earlier and represent the mean from at least three different determinations. All CA isoforms were recombinant proteins obtained in house, as reported earlier[14]^,[26–29].

hCA IX = molecular target: T2, hCA IX (Homo sapiens, UniProt Q16790); experiment: stopped flow CO2 hydrase assay, hCA IX; type: biochemical; details: mean from three different assays
T2 construct: made in house
Description: as §1

TcCA = TcCA (Trypanosoma cruzi, UniProt Q4DKE0); type: biochemical; details: stopped flow CO2 hydrase assay; mean from three different assays
Description: (§2) An Applied Photophysics stopped-flow instrument was used to assay the CA catalysed CO2 hydration activity. […] The uncatalyzed rates were determined in the same manner and subtracted from the total observed rates. Stock solutions of the inhibitor (0.1 mM) were prepared in distilled–deionized water and dilutions up to 0.01 nM were done thereafter with the assay buffer. Inhibitor and enzyme solutions were preincubated together for 15 min at room temperature prior to the assay, to allow for the formation of the E–I complex. The inhibition constants were obtained by non-linear least-squares methods using PRISM 3 and the Cheng-Prusoff equation as reported earlier and represent the mean from at least three different determinations. All CA isoforms were recombinant proteins obtained in house, as reported earlier[14]^,[26–29].

LdCA = LdCA (Leishmania donovani, UniProt A0A3S5H5R2); experiment: biochemical
Description: as §2

SmCA = SmCA (Schistosoma mansoni, UniProt A0A3Q0KSG2); experiment: biochemical
Description: as §2

hCA I = molecular target: T3, hCA I (Homo sapiens, UniProt P00915); experiment: stopped flow CO2 hydrase assay, hCA I; type: biochemical; details: mean from three different assays
T3 construct: made in house
Description: as §1

hCA II = molecular target: T4, hCA II (Homo sapiens, UniProt P00918); experiment: stopped flow CO2 hydrase assay, hCA II; type: biochemical; details: mean from three different assays, read-out: Ki hCAII
T4 construct: made in house
Description: as §1

[1] = test system: newly transformed schistosomula (NTS); experiment: In vitro antischistosomal activity against newly transformed schistosomula (NTS); type: cell-based, Schistosoma mansoni; details: 10 μM, after 72 h of exposure, viability via microscopy
Description: In vitro studies were carried out in accordance with Swiss national and cantonal regulations on animal welfare under the permission number 2070. The drug sensitivity assays with S. mansoni (adult and newly transformed schistosomules (NTS)) were carried out as described recently. Briefly, to obtain NTS, cercariae were collected from infected Biomphalaria glabrata snails and were mechanically transformed. Adult S. mansoni worms were collected by dissecting the mesenteric veins of infected mice at day 49 postinfection. Approximately 30–40 NTS were incubated with the respective test drug in 250 µL of M199 medium (Gibco, Waltham, MA) supplemented with 5% (v/v) foetal calf serum (FCS) (Bioconcept AG, Switzerland), 1% (v/v) penicillin/streptomycin solution (Sigma–Aldrich, Switzerland) and 1% (v/v) antibacterial/antifungal solution for up to 72 h at 37 °C and 5% CO2. The drug was tested at 10 µM in triplicate and repeated once. Three adult S. mansoni were incubated in a final volume of 2 mL rpmI 1640 supplemented with 5% (v/v) FCS and 1% (v/v) penicillin/streptomycin at 37 °C and 5% CO2 for 72 h at 10 µM. The experiment was conducted in duplicate. Worms were judged via microscopic readout 72 h after incubation; they were scored according to phenotypic reference points such as motility, morphology and granularity (scores from 0 to 3).

[2] = stopped flow CO2 hydrase assay, mean from three different assays, read-out: Ki LdCA
[3] = stopped flow CO2 hydrase assay, mean from three different assays, read-out: Ki SmCA

T1 sequence (P22748 19-312): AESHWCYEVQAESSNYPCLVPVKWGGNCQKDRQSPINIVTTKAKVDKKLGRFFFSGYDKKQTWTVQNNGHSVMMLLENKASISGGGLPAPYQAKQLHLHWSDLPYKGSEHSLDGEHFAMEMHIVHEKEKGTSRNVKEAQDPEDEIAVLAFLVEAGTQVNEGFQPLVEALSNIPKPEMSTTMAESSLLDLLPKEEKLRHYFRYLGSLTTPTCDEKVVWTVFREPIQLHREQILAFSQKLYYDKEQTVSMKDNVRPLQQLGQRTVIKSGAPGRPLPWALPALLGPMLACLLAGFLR
LdCA, sequence (A0A3S5H5R2 entry or part of it): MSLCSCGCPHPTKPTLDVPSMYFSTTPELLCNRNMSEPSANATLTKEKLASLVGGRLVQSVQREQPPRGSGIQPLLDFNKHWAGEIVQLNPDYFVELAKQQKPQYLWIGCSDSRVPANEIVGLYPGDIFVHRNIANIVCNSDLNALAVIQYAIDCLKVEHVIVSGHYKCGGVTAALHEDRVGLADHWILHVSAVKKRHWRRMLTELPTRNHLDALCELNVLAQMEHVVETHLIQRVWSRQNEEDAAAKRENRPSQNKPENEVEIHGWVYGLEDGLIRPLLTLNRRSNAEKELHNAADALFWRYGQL
TcCA, sequence (Q4DKE0 entry or part of it): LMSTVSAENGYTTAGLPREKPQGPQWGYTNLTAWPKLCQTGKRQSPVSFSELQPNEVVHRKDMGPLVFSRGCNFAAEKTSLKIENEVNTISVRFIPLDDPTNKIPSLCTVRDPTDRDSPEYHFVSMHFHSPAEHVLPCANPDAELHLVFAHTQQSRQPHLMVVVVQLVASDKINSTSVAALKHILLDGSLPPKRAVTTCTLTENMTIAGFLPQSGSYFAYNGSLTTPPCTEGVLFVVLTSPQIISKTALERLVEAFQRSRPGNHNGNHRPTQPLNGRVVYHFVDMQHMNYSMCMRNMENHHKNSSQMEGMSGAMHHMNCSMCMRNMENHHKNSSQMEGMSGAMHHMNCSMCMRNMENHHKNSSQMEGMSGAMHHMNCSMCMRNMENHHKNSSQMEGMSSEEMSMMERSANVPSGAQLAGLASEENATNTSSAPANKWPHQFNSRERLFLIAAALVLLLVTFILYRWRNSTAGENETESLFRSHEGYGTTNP
SmCA, sequence (A0A3Q0KSG2 entry or part of it): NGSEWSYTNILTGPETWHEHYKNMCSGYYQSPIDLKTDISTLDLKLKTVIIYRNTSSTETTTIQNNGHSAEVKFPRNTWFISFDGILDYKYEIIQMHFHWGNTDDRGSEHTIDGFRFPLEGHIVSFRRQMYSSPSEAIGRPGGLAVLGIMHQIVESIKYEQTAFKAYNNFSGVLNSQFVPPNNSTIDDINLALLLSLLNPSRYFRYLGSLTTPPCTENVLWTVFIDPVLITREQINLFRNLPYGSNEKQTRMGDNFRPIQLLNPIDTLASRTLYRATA
T3 sequence (P00915 whole entry): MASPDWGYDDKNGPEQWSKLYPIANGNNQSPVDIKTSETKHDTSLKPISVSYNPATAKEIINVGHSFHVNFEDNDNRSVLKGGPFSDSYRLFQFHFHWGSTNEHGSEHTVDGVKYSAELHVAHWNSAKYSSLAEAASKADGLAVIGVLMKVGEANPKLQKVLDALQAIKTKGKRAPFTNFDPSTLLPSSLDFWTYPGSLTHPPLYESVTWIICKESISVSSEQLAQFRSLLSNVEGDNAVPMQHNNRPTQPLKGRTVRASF

3–(3-(3–(4-Oxo-1,3,4,6,7,11b-hexahydro-2H-pyrazino[2,1-a]isoquinoline-2-carbonyl) phenyl)ureido)benzenesulfonamide [Compound 31b]
Ki (hCA IV): 451 ± 24.3 nM
Ki (hCA IX): 31.2 ± 1.6 nM
Ki (TcCA): 309 ± 33.4 nM
Ki (LdCA; [2]): 323 ± 16.7 nM
Ki (SmCA; [3]): 2490 ± 144 nM

3–(3-(4–(4-Oxo-1,3,4,6,7,11b-hexahydro-2H-pyrazino[2,1-a]isoquinoline-2-carbonyl) phenyl)ureido)benzenesulfonamide [Compound 31d]
Ki (hCA IV): 320 ± 32.7 nM
Ki (hCA IX): 138 ± 7.8 nM
Ki (TcCA): 393 ± 24.7 nM
Ki (LdCA; [2]): 82.8 ± 5.5 nM
Ki (SmCA; [3]): 764 ± 68.3 nM

4–(3-(3–(4-Oxo-1,3,4,6,7,11b-hexahydro-2H-pyrazino[2,1-a]isoquinoline-2-carbonyl) phenyl)ureido)benzenesulfonamide [Compound 31a]
Ki (hCA IV): 180 ± 19.5 nM
Ki (hCA IX): 280 ± 15.4 nM
Ki (TcCA): 1650 ± 129 nM
Ki (LdCA; [2]): 248 ± 15.9 nM
Ki (SmCA; [3]): 8.8 ± 0.8 nM

4–(3-(4–(4-Oxo-1,3,4,6,7,11b-hexahydro-2H-pyrazino[2,1-a]isoquinoline-2-carbonyl) phenyl)ureido)benzenesulfonamide [Compound 31c]
Ki (hCA IV): 8700 ± 559 nM
Ki (hCA IX): 31.1 ± 2.9 nM
Ki (TcCA): 589 ± 37 nM
Ki (LdCA; [2]): 401 ± 20.7 nM
Ki (SmCA; [3]): 62.8 ± 4 nM

NS(=O)(=O)c1ccc(C(=O)N2CC(=O)N3CCc4ccccc4C3C2)cc1 (stereo not drawn) [Compound 4a, 4–(4-Oxo-1,3,4,6,7,11b-hexahydro-2H-pyrazino[2,1-a]isoquinoline-2-carbonyl) benzenesulfonamide]
Ki (hCA IV): 8860 ± 617 nM
Ki (hCA I): 93.8 ± 8.8 nM
Ki (hCA IX): 30.3 ± 3 nM
Ki (hCA II): 44.6 ± 3.4 nM
Ki (LdCA; [2]): 371 ± 26.9 nM
Ki (SmCA; [3]): 1890 ± 195 nM

NS(=O)(=O)c1ccc(NC(=S)Nc2ccc([Se]Cc3ccc(C(=O)N4CC(=O)N5CCc6ccccc6C5C4)cc3)cc2)cc1 (stereo not drawn) [Compound 9, 4–(3-(4-((4–(4-oxo-1,3,4,6,7,11b-hexahydro-2H-pyrazino[2,1-a]isoquinoline-2-carbonyl)benzyl)selanyl)phenyl)thioureido)benzenesulfonamide]
Ki (hCA IV): 966 ± 82.8 nM
Ki (hCA I): 486 ± 24.9 nM
Ki (hCA IX): 174 ± 17.2 nM
Ki (hCA II): 131 ± 14 nM
Ki (LdCA): 276 ± 22.4 nM
Ki (SmCA): 771 ± 40.1 nM

NS(=O)(=O)c1ccc(NC(=O)NCc2ccc(C(=O)N3CC(=O)N4CCc5ccccc5C4C3)cc2)cc1 (stereo not drawn) [Compound 28a, 4–(3-(4–(4-Oxo-1,3,4,6,7,11b-hexahydro-2H-pyrazino[2,1-a]isoquinoline-2-carbonyl)benzyl)ureido)benzenesulfonamide]
Ki (hCA IV): 548 ± 29.6 nM
Ki (hCA I): 74.4 ± 3.9 nM
activity against NTS [1]: over 30%
Ki (hCA IX): 31.8 ± 1.8 nM
Ki (hCA II): 8.2 ± 0.7 nM
Ki (LdCA; [2]): 340 ± 33.9 nM
Ki (SmCA; [3]): 614 ± 50.6 nM

NS(=O)(=O)c1cccc(NC(=O)NCc2ccc(C(=O)N3CC(=O)N4CCc5ccccc5C4C3)cc2)c1 (stereo not drawn) [Compound 28b, 3–(3-(4–(4-Oxo-1,3,4,6,7,11b-hexahydro-2H-pyrazino[2,1-a]isoquinoline-2-carbonyl)benzyl)ureido)benzenesulfonamide]
Ki (hCA IV): 851 ± 56.2 nM
Ki (hCA I): 96.5 ± 6.5 nM
Ki (hCA IX): 29.9 ± 1.6 nM
Ki (hCA II): 14.9 ± 1.5 nM
Ki (LdCA; [2]): 300 ± 30.5 nM
Ki (SmCA; [3]): 824 ± 66.8 nM

NS(=O)(=O)c1ccc(NC(=O)NCc2ccc(C(=O)Nc3nc(CC(=O)N4CC(=O)N5CCc6ccccc6C5C4)cs3)cc2)cc1 (stereo not drawn) [Compound 29a, N-(4–(2-oxo-2–(4-oxo-1,3,4,6,7,11b-hexahydro-2H-pyrazino[2,1-a]isoquinolin-2-yl)ethyl)thiazol-2-yl)-4-((3–(4-sulfamoylphenyl)ureido)methyl)benzamide]
Ki (hCA IV): 541 ± 30.3 nM
Ki (hCA I): 314 ± 30.5 nM
Ki (hCA IX): 31.9 ± 1.9 nM
Ki (hCA II): 49.6 ± 3.2 nM
Ki (LdCA; [2]): 85.5 ± 6.77 nM
Ki (SmCA; [3]): 1640 ± 97 nM

NS(=O)(=O)c1cccc(NC(=O)NCc2ccc(C(=O)Nc3nc(CC(=O)N4CC(=O)N5CCc6ccccc6C5C4)cs3)cc2)c1 (stereo not drawn) [Compound 29b, N-(4–(2-oxo-2–(4-oxo-1,3,4,6,7,11b-hexahydro-2H-pyrazino[2,1-a]isoquinolin-2-yl)ethyl)thiazol-2-yl)-4-((3–(3-sulfamoylphenyl)ureido)methyl)benzamide]
Ki (hCA IV): 789 ± 66.2 nM
Ki (hCA I): 506 ± 27.9 nM
Ki (hCA IX): 199 ± 17.6 nM
Ki (hCA II): 7.1 ± 0.6 nM
Ki (LdCA; [2]): 218 ± 17.9 nM
Ki (SmCA; [3]): 901 ± 77.6 nM

NS(=O)(=O)c1ccc(C(=O)Nc2nc(CC(=O)N3CC(=O)N4CCc5ccccc5C4C3)cs2)cc1 (stereo not drawn) [Compound 30, N-(4–(2-oxo-2–(4-oxo-1,3,4,6,7,11b-hexahydro-2H-pyrazino[2,1-a]isoquinolin-2-yl)ethyl)thiazol-2-yl)-4-sulfamoylbenzamide]
Ki (hCA IV): 422 ± 26.6 nM
Ki (hCA I): 58.6 ± 6.2 nM
Ki (hCA IX): 119 ± 12.4 nM
Ki (hCA II): 8.5 ± 0.5 nM
Ki (LdCA; [2]): 81.3 ± 6.4 nM
Ki (SmCA; [3]): 7.8 ± 0.6 nM

NS(=O)(=O)c1ccc(CNC(=O)Nc2ccc(C(=O)N3CC(=O)N4CCc5ccccc5C4C3)cc2)cc1 (stereo not drawn) [Compound 32, 4-((3–(4-(4-Oxo-1,3,4,6,7,11b-hexahydro-2H-pyrazino[2,1-a]isoquinoline-2-carbonyl)phenyl)ureido)methyl)benzenesulfonamide]
Ki (hCA IV): 665 ± 47.3 nM
Ki (hCA I): 80.7 ± 4.8 nM
Ki (hCA IX): 112 ± 11.3 nM
Ki (hCA II): 26.5 ± 2.4 nM
Ki (LdCA; [2]): 401 ± 34.8 nM
Ki (SmCA; [3]): 6350 ± 472 nM

NS(=O)(=O)c1ccc(CCNC(=O)Nc2ccc(C(=O)N3CC(=O)N4CCc5ccccc5C4C3)cn2)cc1 (stereo not drawn) [Compound 33, 4–(2-(3–(5-(4-Oxo-1,3,4,6,7,11b-hexahydro-2H-pyrazino[2,1-a]isoquinoline-2-carbonyl)pyridin-2-yl)ureido)ethyl)benzenesulfonamide]
Ki (hCA IV): 6810 ± 379 nM
Ki (hCA I): 128 ± 11.9 nM
Ki (hCA IX): 90.9 ± 9.6 nM
Ki (hCA II): 49.2 ± 3.5 nM
Ki (LdCA; [2]): 87.5 ± 4.9 nM
Ki (SmCA; [3]): 581 ± 32.5 nM

NS(=O)(=O)c1cccc(NC(=O)N2CC(=O)N3CCc4ccccc4C3C2)c1 (stereo not drawn) [Compound 34b, 4-Oxo-N-(3-sulfamoylphenyl)-1,3,4,6,7,11b-hexahydro-2H-pyrazino[2,1-a]isoquinoline-2-carboxamide]
Ki (hCA IV): 517 ± 52.4 nM
Ki (hCA I): 409 ± 23.3 nM
Ki (hCA IX): 91.9 ± 8.8 nM
Ki (hCA II): 45.6 ± 3 nM
Ki (LdCA; [2]): 347 ± 34.3 nM
Ki (SmCA; [3]): 7200 ± 661 nM

NS(=O)(=O)c1ccc(NC(=S)N2CC(=O)N3CCc4ccccc4C3C2)cc1 (stereo not drawn) [Compound 35a, 4-Oxo-N-(4-sulfamoylphenyl)-1,3,4,6,7,11b-hexahydro-2H-pyrazino[2,1-a]isoquinoline-2-carbothioamide]
Ki (hCA IV): 7110 ± 404 nM
Ki (hCA I): 303 ± 24.1 nM
Ki (hCA IX): 82.2 ± 8.6 nM
Ki (hCA II): 53.9 ± 4.4 nM
Ki (LdCA; [2]): 323 ± 22.2 nM
Ki (SmCA; [3]): 79.4 ± 4.2 nM

NS(=O)(=O)c1cccc(NC(=S)N2CC(=O)N3CCc4ccccc4C3C2)c1 (stereo not drawn) [Compound 35b, 4-Oxo-N-(3-sulfamoylphenyl)-1,3,4,6,7,11b-hexahydro-2H-pyrazino[2,1-a]isoquinoline-2-carbothioamide]
Ki (hCA IV): 47.9 ± 4.1 nM
Ki (hCA I): 86.5 ± 9 nM
Ki (hCA IX): 83.3 ± 7.3 nM
Ki (hCA II): 8 ± 0.8 nM
Ki (LdCA; [2]): 237 ± 12.5 nM
Ki (SmCA; [3]): 6150 ± 612 nM

NS(=O)(=O)c1ccc(CCNC(=S)N2CC(=O)N3CCc4ccccc4C3C2)cc1 (stereo not drawn) [Compound 35c, 4-Oxo-N-(4-sulfamoylphenethyl)-1,3,4,6,7,11b-hexahydro-2H-pyrazino[2,1-a]isoquinoline-2-carbothioamide]
Ki (hCA IV): 8270 ± 719 nM
Ki (hCA I): 64 ± 5.4 nM
Ki (hCA IX): 97.1 ± 7.9 nM
Ki (hCA II): 7.6 ± 0.4 nM
Ki (LdCA; [2]): 485 ± 46 nM
Ki (SmCA; [3]): 5 ± 0.5 nM

O=C(C1CCCCC1)N1CC(=O)N2CCc3ccccc3C2C1 (stereo not drawn) [PZQ, Praziquantel]
Ki (hCA IV): > 10000 nM
Ki (hCA I): > 10000 nM
Ki (hCA IX): > 10000 nM
Ki (hCA II): > 10000 nM
Ki (LdCA; [2]): > 10000 nM
Ki (SmCA; [3]): > 10000 nM
